From patent US12552748B2, “Pyridine (thio)amides as fungicidal compounds” (Bayer Aktiengesellschaft, priority 2020, dated 2026)
Marks after values point to notes of the source that are not given here.

Assay: physchem
Format: physicochemical
Description: Measurement of Log P values as provided herein was performed according to EEC directive 79/831 Annex V.A8 by HPLC (High Performance Liquid Chromatography) on reversed phase columns with the following methods: […] If more than one Log P value is available within the same method, all the values are given and separated by “+”. Calibration was done with straight-chain alkan2-ones (with 3 to 16 carbon atoms) with known Log P values (measurement of Log P values using retention times with linear interpolation between successive alkanones). Lambda-max-values were determined using UV-spectra from 200 nm to 400 nm and the peak values of the chromatographic signals

Row | SMILES | chromatographic logP | LogP
1 | Cc1ccc(CCNC(=O)c2cc(Cl)ncc2Br)c(C)c1 [Compound 3-001, 5-bromo-2-chloro-N-[2-(2,4-dimethylphenyl)ethyl]pyridine-4-carboxamide] | 3.4 | –
2 | Cc1ccc(CCNC(=O)c2cc(C(F)(F)F)ncc2Br)c(C)c1 [Compound 3-002] | – | 3.77^[a]
3 | Cc1ccc(C(F)(F)CNC(=O)c2cc(Cl)ncc2Br)c(C)c1 [Compound 3-003] | – | 3.57^[a]
4 | O=C(NCC(F)(F)c1ccc(Br)cc1Cl)c1cc(Cl)ncc1Br [Compound 3-004] | – | 3.68^[a]
5 | Cc1ccc(C(F)(F)CNC(=O)c2c(Br)cnc(Cl)c2F)c(C)c1 [Compound 3-005, 5-bromo-2-chloro-N-[2-(2,4-dimethylphenyl)-2,2-difluoro-ethyl]-3-fluoro-pyridine-4-carboxamide] | 3.81 | –
6 | Cc1ccc(C(F)(F)CNC(=O)c2c(Br)cnc(Cl)c2Cl)c(C)c1 [Compound 3-006] | – | 3.98^[a]
7 | COc1c(Cl)ncc(Br)c1C(=O)NCC(F)(F)c1ccc(C)cc1C [Compound 3-007] | – | 3.75^[a]
8 | O=C(NCC(F)(F)c1ccc(Br)cc1Cl)c1cc(Cl)ncc1Oc1cccc(C(F)(F)F)c1 [Compound I-001] | – | 5.00^[a]
9 | Cc1ccc(CCNC(=O)c2cc(Cl)ncc2Oc2cccc(C(F)(F)F)c2)c(C)c1 [Compound I-002] | – | 4.73^[a]
10 | COc1cc(C(=O)NCC(F)(F)c2ccc(Br)cc2Cl)c(Oc2cccc(C(F)(F)F)c2)cn1 [Compound I-003] | – | 4.95^[a]
11 | COc1cc(C(=O)NCC(F)(F)c2ccc(C)cc2C)c(Oc2cccc(C(F)(F)F)c2)cn1 [Compound I-004] | – | 4.77^[a]
12 | Cc1ccc(C(F)(F)CNC(=O)c2cc(Cl)ncc2Oc2cccc(C(F)(F)F)c2)c(C)c1 [Compound I-005] | – | 4.77^[a]
13 | COc1ccc(CCNC(=O)c2cc(Cl)ncc2Oc2cccc(C(F)(F)F)c2)c(OC)c1 [Compound I-008] | – | 4.06^[a]
14 | O=C(NCC(F)(F)c1ccc(Cl)cc1Cl)c1cc(Cl)ncc1Oc1cccc(C(F)(F)F)c1 [Compound I-009] | – | 4.82^[a]
15 | O=C(NCC(F)c1ccc(Cl)cc1Cl)c1cc(Cl)ncc1Oc1cccc(C(F)(F)F)c1 (stereo not shown) [Compound I-010] | – | 4.74^[a]
16 | O=C(NCC(F)(F)c1ccc(Cl)cc1)c1cc(Cl)ncc1Oc1cccc(C(F)(F)F)c1 [Compound I-011] | – | 4.41^[a]
17 | O=C(NCC(F)c1ccc(Br)cc1Cl)c1cc(Cl)ncc1Oc1cccc(C(F)(F)F)c1 (stereo not shown) [Compound I-012] | – | 4.85^[a]
18 | CC(=O)c1cccc(Oc2cnc(Cl)cc2C(=O)NCCc2ccc(C)cc2C)c1 [Compound I-014] | – | 3.87^[a]
19 | Cc1ccc(C(F)(F)CNC(=O)c2ccncc2Oc2cccc(C(F)(F)F)c2)c(C)c1 [Compound I-015] | – | 3.84^[a]
20 | Cc1ccc(CONC(=O)c2cc(Cl)ncc2Oc2cccc(C(F)(F)F)c2)c(C)c1 [Compound I-017] | – | 4.26^[a]
21 | Cc1cc(C(=O)NC(C)c2cn(C)c3ccccc23)c(Oc2cccc(C(F)(F)F)c2)cn1 (stereo not shown) [Compound I-020] | – | 3.64^[a]
22 | CC(NC(=O)c1cc(Cl)ncc1Oc1cccc(C(F)(F)F)c1)c1cn(C)c2cc(Cl)ccc12 (stereo not shown) [Compound I-021] | – | 4.68^[a]
23 | CCc1cc(C(=O)NCC(F)c2ccc(F)cc2F)c(Oc2cccc(C(F)(F)F)c2)cn1 (stereo not shown) [Compound I-022] | – | 4.66^[a]
24 | Cc1ccc(C(F)(F)CNC(=O)c2cc(Cl)ncc2Oc2cccc(C(F)(F)F)c2C)c(C)c1 [Compound I-023] | – | 5.14^[a]

Row | SMILES | chromatographic logP | LogP
25 | O=C(NCC(F)c1ccc(Cl)cc1Cl)c1cc(C2CC2)ncc1Oc1cccc(C(F)(F)F)c1 (stereo not shown) [Compound I-024] | – | 4.96^[a]
26 | Cc1ccc(CCNC(=O)c2cc(Cl)ncc2Oc2cccc(OC(F)(F)F)c2)c(C)c1 [Compound I-025] | – | 4.97^[a]
27 | CCc1cc(C(=O)NCC(F)(F)c2ccc(C)cc2C)c(Oc2cccc(C(F)(F)F)c2)cn1 [Compound I-026] | – | 4.58^[a]
28 | Cc1ccc(CCNC(=O)c2cc(C)ncc2Oc2cccc(C(F)(F)F)c2)c(C)c1 [Compound I-028] | – | 4.03^[a]
29 | C#Cc1ccc(C(F)(F)CNC(=O)c2cc(Cl)ncc2Oc2cccc(C(F)(F)F)c2)c(Cl)c1 [Compound I-029] | – | 4.53^[a]
30 | CCc1cc(C(=O)NCCc2ccc(C)cc2C)c(Oc2cccc(C(F)(F)F)c2)cn1 [Compound I-030] | – | 4.49^[a]
31 | C#Cc1cc(C(=O)NC(C)c2cn(C)c3cc(Cl)ccc23)c(Oc2cccc(C(F)(F)F)c2)cn1 (stereo not shown) [Compound I-031] | – | 4.27^[a]
32 | C#Cc1cc(C(=O)NCC(F)(F)c2ccc(C)cc2C)c(Oc2cccc(C(F)(F)F)c2)cn1 [Compound I-032] | – | 4.39^[a]
33 | Cc1ccc(C(F)(F)CNC(=O)c2cc(C)ncc2Oc2cccc(C(F)(F)F)c2)c(Cl)c1 [Compound I-033] | – | 4.19^[a]
34 | Cc1ccc(C(F)(F)CNC(=O)c2cc(Cl)ncc2Oc2cccc(Cl)c2)c(C)c1 [Compound I-036] | – | 4.74^[a]
35 | Cc1ccc(C(F)(F)CNC(=O)c2cc(Cl)ncc2Oc2cccc(C(F)F)c2)c(C)c1 [Compound I-038] | – | 4.35^[a]
36 | Cc1ccc(CCNC(=O)c2cc(Cl)ncc2Oc2cccc(C(F)F)c2)c(C)c1 [Compound I-039] | – | 4.30^[a]
37 | COc1cccc(Oc2cnc(Cl)cc2C(=O)NCC(F)(F)c2ccc(C)cc2C)c1 [Compound I-042] | – | 4.46^[a]
38 | Cc1cccc(Oc2cnc(Cl)cc2C(=O)NCC(F)(F)c2ccc(C)cc2C)c1 [Compound I-044] | – | 4.85^[a]
39 | Cc1cccc(Oc2cnc(Cl)cc2C(=O)NCCc2ccc(C)cc2C)c1 [Compound I-045] | – | 4.84^[a]
40 | O=C(NCC(F)(F)c1ccc(Br)cc1Cl)c1c(Oc2cccc(C(F)(F)F)c2)cnc(Cl)c1I [Compound I-046] | – | 4.96^[a]
41 | Cc1cccc(Oc2cnc(C)cc2C(=O)NCC(F)(F)c2ccc(C)cc2C)c1 [Compound I-047] | – | 4.08^[a]
42 | COc1cccc(Oc2cnc(Cl)cc2C(=O)NCC(F)(F)c2ccc(C)cc2Cl)c1 [Compound I-048] | – | 3.67^[a]
43 | Cc1ccc(C(F)(F)CNC(=O)c2cc(C)ncc2Oc2cccc(C(F)F)c2)c(C)c1 [Compound I-049] | – | 3.73^[a]
44 | C=C(OCC)c1cc(C(=O)NCCc2ccc(C)cc2C)c(Oc2cccc(C(F)(F)F)c2)cn1 [Compound I-051] | – | 4.84^[a]
45 | Cc1ccc(C(F)(F)CNC(=O)c2cc(C)ncc2Oc2cccc(Cl)c2)c(C)c1 [Compound I-058] | – | 4.13^[a]
46 | Cc1ccc(CCNC(=O)c2cc(C#N)ncc2Oc2cccc(C(F)(F)F)c2)c(C)c1 [Compound I-059] | – | 4.39^[a]
47 | Cc1ccc(C(F)(F)CNC(=O)c2cc(Cl)ncc2Oc2cccc(C3CC3)c2F)c(C)c1 [Compound I-061] | – | 5.11^[a]
48 | Cc1ccc(CCNC(=O)c2cc(Cl)ncc2Oc2cccc(C3CC3)c2F)c(C)c1 [Compound I-062] | – | 5.11^[a]

Row | SMILES | chromatographic logP | LogP
49 | Cc1ccc(C(F)(F)CNC(=O)c2cc(Cl)ncc2Oc2cccc(C3CC3)c2)c(C)c1 [Compound I-065] | – | 5.17^[a]
50 | O=C(NCC(F)(F)c1ccc(Br)cc1Cl)c1cc(Cl)ncc1Oc1cccc(C2CC2)c1 [Compound I-066] | – | 5.36^[a]
51 | Cc1ccc(C(F)(F)CNC(=O)c2cc(C)ncc2Oc2cccc(Cl)c2)c(Cl)c1 [Compound I-067] | – | 4.06^[a]
52 | Cc1cccc(Oc2cnc(C)cc2C(=O)NCC(F)(F)c2ccc(C)cc2Cl)c1 [Compound I-068] | – | 4.06^[a]
53 | Cc1ccc(C(F)(F)CNC(=O)c2cc(C)ncc2Oc2cccc(C3CC3)c2F)c(C)c1 [Compound I-069] | – | 4.46^[a]
54 | Cc1ccc(C(F)(F)CNC(=O)c2cc(C)ncc2Oc2cccc(C3CC3)c2)c(C)c1 [Compound I-070] | – | 4.44^[a]
55 | Cc1ccc(C(F)(F)CNC(=O)c2cc(C)ncc2Oc2cccc(C3CC3)c2)c(Cl)c1 [Compound I-071] | – | 4.39^[a]
56 | C=Cc1cc(C(=O)NCC(F)(F)c2ccc(C)cc2C)c(Oc2cccc(C3CC3)c2)cn1 [Compound I-072] | – | 5.05^[a]
57 | O=C(NCC(F)(F)c1ccc(C2CC2)cc1Cl)c1cc(Cl)ncc1Oc1cccc(C2CC2)c1F [Compound I-075] | – | 5.31^[a]
58 | Cc1ccc(CCNC(=O)c2cc(N3CCCC3)ncc2Oc2cccc(C(F)(F)F)c2)c(C)c1 [Compound I-088] | – | 4.26^[a]
59 | Cc1ccc(C(F)(F)CNC(=O)c2cc(C)ncc2Oc2cccc(C3CC3)c2F)c(Cl)c1 [Compound I-089] | – | 4.47^[a]
60 | Cc1ccc(C(F)(F)CNC(=O)c2cc(Cl)nc(F)c2Oc2cccc(C(F)(F)F)c2)c(C)c1 [Compound I-092] | – | 5.04^[a]
61 | CO/N=C(\C)c1cc(C(=O)NCCc2ccc(C)cc2C)c(Oc2cccc(C(F)(F)F)c2)cn1 [Compound I-093] | – | 5.36^[a]
62 | CO/N=C(/C)c1cc(C(=O)NCCc2ccc(C)cc2C)c(Oc2cccc(C(F)(F)F)c2)cn1 [Compound I-094] | – | 4.85^[a]
63 | Cc1ccc(CCNC(=O)c2cc(Cl)ncc2Oc2cccc(C(F)(F)F)c2)o1 [Compound I-095] | – | 4.05^[a]
64 | Cc1cnn(CCNC(=O)c2cc(Cl)ncc2Oc2cccc(C(F)(F)F)c2)c1 [Compound I-096] | – | 3.14^[a]
65 | O=C(NCCc1cccs1)c1cc(Cl)ncc1Oc1cccc(C(F)(F)F)c1 [Compound I-097] | – | 3.98^[a]
66 | O=C(NCCn1cc(Cl)cn1)c1cc(Cl)ncc1Oc1cccc(C(F)(F)F)c1 [Compound I-098] | – | 3.40^[a]
67 | O=C(NCCc1ncc(Cl)cn1)c1cc(Cl)ncc1Oc1cccc(C(F)(F)F)c1 [Compound I-099] | – | 3.34^[a]
68 | O=C(NCCc1ccc2[nH]ccc2c1)c1cc(Cl)ncc1Oc1cccc(C(F)(F)F)c1 [Compound I-100] | – | 3.71^[a]
69 | O=C(NCCc1cccc2[nH]ccc12)c1cc(Cl)ncc1Oc1cccc(C(F)(F)F)c1 [Compound I-101] | – | 3.71^[a]
70 | CC(NC(=O)c1cc(Cl)ncc1Oc1cccc(C(F)(F)F)c1)c1ccc(Cl)s1 (stereo not shown) [Compound I-103] | – | 4.47^[a]
